How the values were obtained:
PD-1/PD-L1 [1] = target: PD-1/PD-L1 (Homo sapiens, UniProt Q9NZQ7); experiment: TR-FRET PD-1/PD-L1 binding inhibition at the molecular level (free proteins); details: Tag1-PD-L1 and Tag2-PD-1 proteins, twelve concentrations from 200 nM, 2 hours at room temperature, read-out: FRET assay (IC50)
Method in brief: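 HTRF read-out at 665/620 nm after 2 h at room temperature. Detection used anti-Tag1 Eu cryptate plus anti-Tag2 XL665 antibodies. Tagged PD-L1 and PD-1 proteins were pre-mixed with compound across twelve […] 1:2 dilutions starting at 200 nM.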

[2] = target: T1, PD-L1 expressed on the cell surface (MC38 hPD-L1) (Homo sapiens, UniProt Q9NZQ7); experiment: Internalization of cell surface PD-L1, flow cytometry with fluorescent staining; assay type: cell-based; details: MC38 hPD-L1 cells, 1 µM, 4 hours; untreated 90% to 99%
T1 construct: expressed in transfected cells; host or cells: MC38 mouse colon cancer cell line expressing human PD-L1
T1 sequence (Q9NZQ7 19-290): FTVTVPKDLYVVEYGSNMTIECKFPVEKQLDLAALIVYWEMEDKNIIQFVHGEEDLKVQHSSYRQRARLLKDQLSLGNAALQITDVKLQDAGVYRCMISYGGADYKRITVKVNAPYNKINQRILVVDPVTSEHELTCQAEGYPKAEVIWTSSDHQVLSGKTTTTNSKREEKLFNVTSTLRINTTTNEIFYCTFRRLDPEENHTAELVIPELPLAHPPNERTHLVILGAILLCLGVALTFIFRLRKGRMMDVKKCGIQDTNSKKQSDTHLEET
Protocol: In order to evaluate the internalization of cell surface PD-L1 induced by the compounds of the present invention synthesized according to the above Preparation Examples, a flow cytometry experiment using fluorescent staining was conducted as described below.
Specifically, a mouse colon cancer cell line expressing human PD-L1 (MC38 hPD-L1) was seeded into a 24-well plate at a density of 5 x 10^5 cells per well, followed by treatment with Compounds 206 to 227 at a concentration of 1 µM and incubation for 4 hours. After 4 hours, the compound-treated MC38 hPD-L1 cells were collected and stained with PE anti-hPD-L1 fluorecence at room temperature for 30 minutes. The rate of PD-L1 expression on the cell surface was then quantified using flow cytometry.

PD-1/PD-L1 [3] = experiment: PD-1/PD-L1 blockade bioassay at the cellular level (PD-L1 aAPC/CHO-K1 cells + PD-1 Effector T cells, luciferase); assay type: cell-based; details: Homo sapiens, T-cell; PD-L1 aAPC/CHO-K1 cells with PD-1 Effector T cells, 6 hours, luminescence; read-out: PD-1/PD-L1 Inhibitory Activity EC50
Protocol: In order to evaluate the effect of the compounds of the present invention, synthesized according to the above Preparation Examples, on blocking signal transduction between PD-1/PD-L1-expressing cells, a PD-1/PD-L1 blockade bioassay was conducted as described below.
Specifically, PD-L1 aAPC/CHO-K1 cells engineered to express human PD-L1 were seeded into a 96-well white plate and cultured for one day. On the following day, the compounds were prepared in a 96-well plate by serial dilution at concentrations starting from 10 µM and 5 µM, followed by 1/4 dilutions to obtain a total of ten concentrations. The culture medium in the plate seeded with the PD-L1 aAPC/CHO-K1 cell line was removed, and 40 µL of each prepared compound solution was added to a 96-well plate. Thereafter, 40 µL of PD-1 Effector T cell line engineered to express human PD-1 was additionally added, and then cultured for 6 hours. After 6 hours, 80 µL of Bio-Glo luciferase buffer was added to each well, followed by incubation at room temperature for 10 minutes, and luminescence was measured using a microplate reader.

Sequence of PD-1/PD-L1 (Homo sapiens, UniProt Q9NZQ7) (Q9NZQ7 19-238 limits assumed): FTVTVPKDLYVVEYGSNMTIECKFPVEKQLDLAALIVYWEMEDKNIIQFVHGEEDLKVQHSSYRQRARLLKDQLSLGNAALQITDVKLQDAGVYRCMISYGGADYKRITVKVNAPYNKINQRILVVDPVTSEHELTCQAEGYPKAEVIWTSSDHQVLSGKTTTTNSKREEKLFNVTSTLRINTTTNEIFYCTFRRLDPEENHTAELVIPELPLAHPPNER

SMILES | IC50 (PD-1/PD-L1 [1]) [nM] | Cell surface PD-L1 expression level (%) [2] [%] | EC50 (PD-1/PD-L1 [3]) [nM]
O=C(Nc1cccc(-c2cccc(NC(=O)c3cc4n(n3)CCC[C@@H]4NCCO)c2Cl)c1Cl)c1ccc(CNCCO)cn1 [Compound 206, (S)-N-(2,2'-dichloro-3'-(5-(((2-hydroxyethyl)amino)methyl)picolinamido)-[1,1'-biphenyl]-3-yl)-4-((2-hydroxyethyl)amino)-4,5,6,7-tetrahydropyrazolo[1,5-a]pyridine-2-carboxamide] | < 10 | 0.9 | 15.7
O=C(Nc1cccc(-c2cccc(NC(=O)c3cc4n(n3)CCC[C@H]4N3CC[C@@H](C(=O)O)C3)c2Cl)c1Cl)c1ccc(CNCCO)cn1 [Compound 209, (R)-1-((R)-2-((2,2'-dichloro-3'-(5-(((2-hydroxyethyl)amino)methyl)picolinamido)-[1,1'-biphenyl]-3-yl)carbamoyl)-4,5,6,7-tetrahydropyrazolo[1,5-a]pyridin-4-yl)pyrrolidine-3-carboxylic acid] | < 10 | 71.0 | 
Cc1c(NC(=O)c2cc3n(n2)CCC[C@H]3N2CC[C@@H](C(=O)O)C2)cccc1-c1cccc(Nc2nc(C(F)F)nc3cc(CN4CC[C@@H](O)C4)cnc23)c1C [Compound 211, (R)-1-((R)-2-((3'-((2-(difluoromethyl)-7-(((R)-3-hydroxypyrrolidin-1-yl)methyl)pyrido[3,2-d]pyrimidin-4-yl)amino)-2,2'-dimethyl-[1,1'-biphenyl]-3-yl)carbamoyl)-4,5,6,7-tetrahydropyrazolo[1,5-a]pyridin-4-yl)pyrrolidine-3-carboxylic acid] | < 10 | 75.3 | 
Cc1c(NC(=O)c2cc3n(n2)CCC[C@H]3NCC(=O)O)cccc1-c1cccc(Nc2nc(C(F)F)nc3cc(CN4CC[C@@H](O)C4)cnc23)c1C [Compound 213, 2-(((R)-2-((3'-((2-(difluoromethyl)-7-(((R)-3-hydroxypyrrolidin-1-yl)methyl)pyrido[3,2-d]pyrimidin-4-yl)amino)-2,2'-dimethyl-[1,1'-biphenyl]-3-yl)carbamoyl)-4,5,6,7-tetrahydropyrazolo[1,5-a]pyridin-4-yl)amino)acetic acid] | < 10 | 73.9 | 
Cc1c(NC(=O)c2ccc(CN3CC[C@@H](O)C3)cn2)cccc1-c1cccc(NC(=O)c2cc3n(n2)CCC[C@H]3NCCO)c1C [Compound 215, (R)-4-((2-hydroxyethyl)amino)-N-(3'-(5-(((R)-3-hydroxypyrrolidin-1-yl)methyl)picolinamido)-2,2'-dimethyl-[1,1'-biphenyl]-3-yl)-4,5,6,7-tetrahydropyrazolo[1,5-a]pyridine-2-carboxamide] | < 10 | 88.7 | 
O=C(O)CN[C@@H]1CCCn2nc(C(=O)Nc3cccc(-c4cccc(Nc5nccc6cc(CN7CC[C@@H](O)C7)cnc56)c4Cl)c3Cl)cc21 [Compound 219, 2-(((R)-2-((2,2'-dichloro-3'-((3-(((R)-3-hydroxypyrrolidin-1-yl)methyl)-1,7-naphthyridin-8-yl)amino)-[1,1'-biphenyl]-3-yl)carbamoyl)-4,5,6,7-tetrahydropyrazolo[1,5-a]pyridin-4-yl)amino)acetic acid] | < 10 | 36.5 | 
O=C(O)CN[C@@H]1CCCn2nc(C(=O)Nc3cccc(-c4cccc(NC(=O)c5ccc(CNCCO)cn5)c4Cl)c3Cl)cc21 [Compound 221, (R)-2-((2-((2,2'-dichloro-3'-(5-(((2-hydroxyethyl)amino)methyl)picolinamido)-[1,1'-biphenyl]-3-yl)carbamoyl)-4,5,6,7-tetrahydropyrazolo[1,5-a]pyridin-4-yl)amino)acetic acid] | < 10 | 41.3 | 
O=C(O)CN[C@@H]1CCCn2nc(C(=O)Nc3cccc(-c4cccc(NC(=O)c5ccc(CN6CC[C@@H](O)C6)cn5)c4Cl)c3Cl)cc21 [Compound 223, 2-(((R)-2-((2,2'-dichloro-3'-(5-(((R)-3-hydroxypyrrolidin-1-yl)methyl)picolinamido)-[1,1'-biphenyl]-3-yl)carbamoyl)-4,5,6,7-tetrahydropyrazolo[1,5-a]pyridin-4-yl)amino)acetic acid] | 10 to 100 | 66.4 | 
O=C1CC[C@@H](CN[C@H]2CCCn3nc(C(=O)Nc4cccc(-c5cccc(NC(=O)c6ccc(CNCCO)cn6)c5Cl)c4Cl)cc32)N1 [Compound 224, (S)-N-(2,2'-dichloro-3'-(5-(((2-hydroxyethyl)amino)methyl)picolinamido)-[1,1'-biphenyl]-3-yl)-4-((((S)-5-oxopyrrolidin-2-yl)methyl)amino)-4,5,6,7-tetrahydropyrazolo[1,5-a]pyridine-2-carboxamide] | < 10 | 70.8 | 
O=C1CC[C@@H](CN[C@@H]2CCCn3nc(C(=O)Nc4cccc(-c5cccc(NC(=O)c6ccc(CNCCO)cn6)c5Cl)c4Cl)cc32)N1 [Compound 225, (R)-N-(2,2'-dichloro-3'-(5-(((2-hydroxyethyl)amino)methyl)picolinamido)-[1,1'-biphenyl]-3-yl)-4-((((S)-5-oxopyrrolidin-2-yl)methyl)amino)-4,5,6,7-tetrahydropyrazolo[1,5-a]pyridine-2-carboxamide] | 10 to 100 | 1.6 | 
O=C(Nc1cccc(-c2cccc(Nc3nccc4cc(CN5CC[C@H](O)C5)cnc34)c2Cl)c1Cl)c1cc2n(n1)CCC[C@@H]2N1CCC(C(=O)O)CC1 [Compound 226, 1-((S)-2-((2,2'-dichloro-3'-((3-(((S)-3-hydroxypyrrolidin-1-yl)methyl)-1,7-naphthyridin-8-yl)amino)-[1,1'-biphenyl]-3-yl)carbamoyl)-4,5,6,7-tetrahydropyrazolo[1,5-a]pyridin-4-yl)piperidine-4-carboxylic acid] | 10 to 100 | 80.8 | 
CN[C@@H]1CCCn2nc(C(=O)Nc3cccc(-c4cccc(Nc5nc(C(F)(F)F)nc6cc(CN7CC[C@@H](O)C7)cnc56)c4Cl)c3Cl)cc21 [Compound 353, (R)-N-(2,2'-dichloro-3'-((7-(((R)-3-hydroxypyrrolidin-1-yl)methyl)-2-(trifluoromethyl)pyrido[3,2-d]pyrimidin-4-yl)amino)-[1,1'-biphenyl]-3-yl)-4-(methylamino)-4,5,6,7-tetrahydropyrazolo[1,5-a]pyridine-2-carboxamide] | 10 to 100 |  | 
CN[C@H]1CCCn2nc(C(=O)Nc3cccc(-c4cccc(Nc5nc(C(F)F)nc6cc(CN7CC[C@@H](O)C7)cnc56)c4Cl)c3Cl)cc21 [Compound 354, (S)-N-(2,2'-dichloro-3'-((2-(difluoromethyl)-7-(((R)-3-hydroxypyrrolidin-1-yl)methyl)pyrido[3,2-d]pyrimidin-4-yl)amino)-[1,1'-biphenyl]-3-yl)-4-(methylamino)-4,5,6,7-tetrahydropyrazolo[1,5-a]pyridine-2-carboxamide] | 10 to 100 |  | 
CN[C@@H]1CCCn2nc(C(=O)Nc3cccc(-c4cccc(Nc5nc(C(F)F)nc6cc(CN7CC[C@@H](O)C7)cnc56)c4Cl)c3Cl)cc21 [Compound 355, (R)-N-(2,2'-dichloro-3'-((2-(difluoromethyl)-7-(((R)-3-hydroxypyrrolidin-1-yl)methyl)pyrido[3,2-d]pyrimidin-4-yl)amino)-[1,1'-biphenyl]-3-yl)-4-(methylamino)-4,5,6,7-tetrahydropyrazolo[1,5-a]pyridine-2-carboxamide] | 10 to 100 |  | 
CN[C@H]1CCCn2nc(C(=O)Nc3cccc(-c4cccc(Nc5nc(C(F)(F)F)nc6cccnc56)c4Cl)c3Cl)cc21 [Compound 356, (S)-N-(2,2'-dichloro-3'-((2-(trifluoromethyl)pyrido[3,2-d]pyrimidin-4-yl)amino)-[1,1'-biphenyl]-3-yl)-4-(methylamino)-4,5,6,7-tetrahydropyrazolo[1,5-a]pyridine-2-carboxamide] | 10 to 100 |  | 
CN[C@@H]1CCCn2nc(C(=O)Nc3cccc(-c4cccc(Nc5nc(C(F)(F)F)nc6cccnc56)c4Cl)c3Cl)cc21 [Compound 357, (R)-N-(2,2'-dichloro-3'-((2-(trifluoromethyl)pyrido[3,2-d]pyrimidin-4-yl)amino)-[1,1'-biphenyl]-3-yl)-4-(methylamino)-4,5,6,7-tetrahydropyrazolo[1,5-a]pyridine-2-carboxamide] | 10 to 100 |  | 

Reference: patent EP4755888A1 (ILAb Co., Ltd., priority 2023, dated 2025)
